Assay results: patent publication US12558362B2, “Use of cannabidiol in the treatment of seizures associated with rett syndrome” (JAZZ PHARMACEUTICALS RESEARCH UK LIMITED, priority 2020, dated 2026)
“Also recorded” adds a separate entry of the source.

Assays:
[1] = test system: patients with Dravet and Lennox-Gastaut syndrome; details: cited from earlier work
[2] = test system: patients diagnosed with Rett syndrome; assay: Open label, expanded-access program of botanically derived purified CBD: seizure frequency recorded in caregiver diaries relative to baseline; assay type: in vivo, human; parameters: Reduction in tonic seizures over the treatment period / Reduction in focal seizures with impairment over the treatment period / Reduction in absence seizures over the treatment period: concentration or dose not given beside the values; Seizure frequency, tonic / Seizure frequency, tonic-clonic / Seizure frequency, absence / Seizure frequency, focal with impairment: unit not given here; details: for Seizure frequency, focal with impairment: baseline 3.2
Method: Subjects were required to be on one or more AEDs at stable doses for a minimum of two weeks prior to baseline and to have stable vagus nerve stimulation (VNS) settings and ketogenic diet ratios for a minimum of four weeks prior to baseline.
Patients were administered botanically derived purified CBD in a 100 mg/mL sesame oil-based solution which was titrated to an initial dose of between 5 and 25 milligrams per kilogram per day (mg/kg/day) in two divided doses. Doses were then increased weekly by 5 mg/kg/day to a goal of 25 mg/kg/day where required.
A maximum dose of 50 mg/kg/day could be utilised for patients who were tolerating the medication but had not achieved seizure control; these patients had further weekly titration by 5 mg/kg/day.
There were three patients in this study, and each received CBD for various durations of time. Modifications were made to concomitant AEDs as per clinical indication.
Seizure frequency, intensity, and duration were recorded by caregivers in a diary during a baseline period of at least 28 days. Changes in seizure frequency relative to baseline were calculated after at least 2 weeks and at defined timepoints of treatment.
Patients may be defined as responders if they had more than 50% reduction in seizure frequency compared to baseline. The percent change in seizure frequency was calculated as follows: […]
The percent change of seizure frequency may be calculated for any time interval where seizure number has been recorded. For the purpose of this example the percent change of seizure frequency for the end of the treatment period was calculated as follows:
[formula] Results Patient Description

[3] = test system: mouse model of Rett syndrome; details: cited from earlier work
[4] = Patient 2, treated for 84 weeks
[5] = printed Patient 2 (follows Table 2C of Patient 3), treated for 36 weeks

Structure (SMILES): C=C(C)[C@@H]1CCC(C)=C[C@H]1c1c(O)cc(CCCCC)cc1O [CBD, cannabidiol]
- Efficacy in randomized control trials [1]: showed efficacy
- Seizure frequency, tonic-clonic ([2]; Patient 1, 2 weeks, CBD 5.0 mg/kg/day, baseline 10.0): 26.0
- Seizure frequency, tonic ([2]; Patient 1, 2 weeks, CBD 5.0 mg/kg/day, baseline 22.4): 22.0
- Seizure frequency, tonic-clonic ([2]; Patient 1, 4 weeks, CBD 10.0 mg/kg/day, baseline 10.0): 21.4
- Seizure frequency, tonic ([2]; Patient 1, 4 weeks, CBD 10.0 mg/kg/day, baseline 22.4): 38.0
- Seizure frequency, tonic-clonic ([2]; Patient 1, 8 weeks, CBD 20.0 mg/kg/day, baseline 10.0): 14.0
- Seizure frequency, tonic ([2]; Patient 1, 8 weeks, CBD 20.0 mg/kg/day, baseline 22.4): 28.0
- Seizure frequency, tonic-clonic ([2]; Patient 1, 12 weeks, CBD 25.0 mg/kg/day, baseline 10.0): 12.0
- Seizure frequency, tonic ([2]; Patient 1, 12 weeks, CBD 25.0 mg/kg/day, baseline 22.4): 28.0
- Seizure frequency, tonic-clonic ([2]; Patient 1, 16 weeks, CBD 15.0 mg/kg/day, baseline 10.0): 22.0
- Seizure frequency, tonic ([2]; Patient 1, 16 weeks, CBD 15.0 mg/kg/day, baseline 22.4): 14.0
- Seizure frequency, tonic-clonic ([2]; Patient 1, 24 weeks, CBD 15.0 mg/kg/day, baseline 10.0): 12.0
- Seizure frequency, tonic ([2]; Patient 1, 24 weeks, CBD 15.0 mg/kg/day, baseline 22.4): 8.0
- Seizure frequency, tonic-clonic ([2]; Patient 1, 36 weeks, CBD 15.0 mg/kg/day, baseline 10.0): 20.0
- Seizure frequency, tonic ([2]; Patient 1, 36 weeks, CBD 15.0 mg/kg/day, baseline 22.4): 20.0
- Reduction in tonic seizures over the treatment period ([2]; Patient 1, treated for 36 weeks): 10.7%
- Seizure frequency, absence ([2]; Patient 2, 8 weeks, CBD 20.0 mg/kg/day, baseline 0): 1.0
- Seizure frequency, focal with impairment ([2]; Patient 2, 8 weeks, CBD 20.0 mg/kg/day): 0
- Seizure frequency, tonic ([2]; Patient 2, 8 weeks, CBD 20.0 mg/kg/day, baseline 5.6): 3.0
- Seizure frequency, absence ([2]; Patient 2, 12 weeks, CBD 20.0 mg/kg/day, baseline 0): 0
- Seizure frequency, focal with impairment ([2]; Patient 2, 12 weeks, CBD 20.0 mg/kg/day): 0
- Seizure frequency, tonic ([2]; Patient 2, 12 weeks, CBD 20.0 mg/kg/day, baseline 5.6): 1.6
- Seizure frequency, absence ([2]; Patient 2, 16 weeks, CBD 20.0 mg/kg/day, baseline 0): 0
- Seizure frequency, focal with impairment ([2]; Patient 2, 16 weeks, CBD 20.0 mg/kg/day): 0
- Seizure frequency, tonic ([2]; Patient 2, 16 weeks, CBD 20.0 mg/kg/day, baseline 5.6): 2.0
- Seizure frequency, absence ([2]; Patient 2, 24 weeks, CBD 20.0 mg/kg/day, baseline 0): 0.8
- Seizure frequency, focal with impairment ([2]; Patient 2, 24 weeks, CBD 20.0 mg/kg/day): 0
- Seizure frequency, tonic ([2]; Patient 2, 24 weeks, CBD 20.0 mg/kg/day, baseline 5.6): 0.4
- Seizure frequency, absence ([2]; Patient 2, 36 weeks, CBD 20.0 mg/kg/day, baseline 0): 0.4
- Seizure frequency, focal with impairment ([2]; Patient 2, 36 weeks, CBD 20.0 mg/kg/day): 0
- Seizure frequency, tonic ([2]; Patient 2, 36 weeks, CBD 20.0 mg/kg/day, baseline 5.6): 0.4
- Seizure frequency, absence ([2]; Patient 2, 48 weeks, CBD 20.0 mg/kg/day, baseline 0): 0
- Seizure frequency, focal with impairment ([2]; Patient 2, 48 weeks, CBD 20.0 mg/kg/day): 0
- Seizure frequency, tonic ([2]; Patient 2, 48 weeks, CBD 20.0 mg/kg/day, baseline 5.6): 0.8
- Seizure frequency, absence ([2]; Patient 2, 60 weeks, CBD 20.0 mg/kg/day, baseline 0): 0
- Seizure frequency, focal with impairment ([2]; Patient 2, 60 weeks, CBD 20.0 mg/kg/day): 0
- Seizure frequency, tonic ([2]; Patient 2, 60 weeks, CBD 20.0 mg/kg/day, baseline 5.6): 1.4
- Seizure frequency, absence ([2]; Patient 2, 72 weeks, CBD 21.3 mg/kg/day, baseline 0): 0.4
- Seizure frequency, focal with impairment ([2]; Patient 2, 72 weeks, CBD 21.3 mg/kg/day): 0
- Seizure frequency, tonic ([2]; Patient 2, 72 weeks, CBD 21.3 mg/kg/day, baseline 5.6): 0.4
- Seizure frequency, absence ([2]; Patient 2, 84 weeks, CBD 20.0 mg/kg/day, baseline 0): 0.4
- Seizure frequency, focal with impairment ([2]; Patient 2, 84 weeks, CBD 20.0 mg/kg/day): 0
- Seizure frequency, tonic ([2]; Patient 2, 84 weeks, CBD 20.0 mg/kg/day, baseline 5.6): 0.4
- Reduction in focal seizures with impairment over the treatment period [2, 4]: 100%
- Reduction in tonic seizures over the treatment period [2, 4]: 92.9%
- Seizure frequency, tonic-clonic ([2]; Patient 3, 4 weeks, CBD 25.0 mg/kg/day, baseline 4.0): 4.0
- Seizure frequency, absence ([2]; Patient 3, 4 weeks, CBD 25.0 mg/kg/day, baseline 8.0): 1.0
- Seizure frequency, tonic ([2]; Patient 3, 4 weeks, CBD 25.0 mg/kg/day, baseline 16.0): 2.0
- Seizure frequency, tonic-clonic ([2]; Patient 3, 12 weeks, CBD 25.0 mg/kg/day, baseline 4.0): 4.0
- Seizure frequency, absence ([2]; Patient 3, 12 weeks, CBD 25.0 mg/kg/day, baseline 8.0): 0
- Seizure frequency, tonic ([2]; Patient 3, 12 weeks, CBD 25.0 mg/kg/day, baseline 16.0): 1.0
- Seizure frequency, tonic-clonic ([2]; Patient 3, 16 weeks, CBD 25.0 mg/kg/day, baseline 4.0): 6.0
- Seizure frequency, absence ([2]; Patient 3, 16 weeks, CBD 25.0 mg/kg/day, baseline 8.0): 0
- Seizure frequency, tonic ([2]; Patient 3, 16 weeks, CBD 25.0 mg/kg/day, baseline 16.0): 4.0
- Seizure frequency, tonic-clonic ([2]; Patient 3, 24 weeks, CBD 25.0 mg/kg/day, baseline 4.0): 8.0
- Seizure frequency, absence ([2]; Patient 3, 24 weeks, CBD 25.0 mg/kg/day, baseline 8.0): 4.0
- Seizure frequency, tonic ([2]; Patient 3, 24 weeks, CBD 25.0 mg/kg/day, baseline 16.0): 0
- Seizure frequency, tonic-clonic ([2]; Patient 3, 36 weeks, CBD 25.0 mg/kg/day, baseline 4.0): 6.0
- Seizure frequency, absence ([2]; Patient 3, 36 weeks, CBD 25.0 mg/kg/day, baseline 8.0): 1.0
- Seizure frequency, tonic ([2]; Patient 3, 36 weeks, CBD 25.0 mg/kg/day, baseline 16.0): 4.0
- Reductions in seizures over the period of treatment, overall ([2]; all three patients, range over patients and seizure types): 10.7-100.0%
- Decrease of seizure frequency rates: tonic, tonic-clonic, absence and focal seizures with impairment ([2]; conclusion, all patients): 11-100.0%
- Seizure freedom, focal seizures with impairment ([2]; one patient (patient 2)): became seizure free of focal seizures with impairment
- Reduction in absence seizures over the treatment period [2, 5]: 87.5%
- Reduction in tonic seizures over the treatment period [2, 5]: 75%
- Reduction in tonic seizures, all three patients ([2]; range over the three patients): 11-93%
- Reduction of seizures associated with Rett syndrome ([2]; summary statement of the program): significantly reduce the number of seizures; also recorded: significant reduction in specific seizure types
- Effect on frequency of tonic, absence and focal seizures with impairment ([2]; three patients with Rett syndrome): effective in reducing the frequency

Structure (SMILES): C=C(C)[C@@H]1CCC(C)=C[C@H]1c1c(O)cc(CCC)cc1O [CBDV, cannabidivarin]
- Behavioural alterations [3]: rescue the behavioural alterations
